Measured values as given in publication PMC12298827, “Subchronic Toxicities of Four Per- and Polyfluoroalkyl Substances (PFASs) by Oral Exposure in Sprague–Dawley Rats” (Toxics, 2025).

System: male and female Sprague–Dawley rats
Experiment: 90-day subchronic oral gavage toxicity study
Format: in vivo, rat
Set-up: key to NOEL, absolute liver weight increase / LOEL, absolute liver weight increase / NOEL, relative kidney weight increase / LOEL, relative kidney weight increase / NOEL, absolute kidney weight increase / LOEL, absolute kidney weight increase / NOEL, relative liver weight increase / LOEL, relative liver weight increase: NR: no response, no statistically significant dose-dependent changes
Description: Subchronic (90-day) studies were performed in accordance with current U.S. EPA’s Toxic Substances Control Act Good Laboratory Practice (GLP) Standards, with the following two general exceptions to the GLP guidelines: Analysis of the dose formulations was conducted according to RTI-approved Standard Operating Procedures, and corn oil (the vehicle) was not characterized (certificate of analysis from the vendor is available in the appendices to the final reports). Male and female Sprague–Dawley rats (five dose levels plus a control, n = 10/sex/dose group, corn oil vehicle dose volume of 3 mL/kg; oral gavage) were used in these studies, and the rats were euthanized on SD 91. The dose levels for PFHI were 0, 12.5, 25, 50, 100, and 200 mg/kg-day. The dose levels for MHFPK were 0, 18.8, 37.5, 75, 150, and 300 mg/kg-day. The dose levels for PFNAC were 0, 0.1, 0.3, 1.0, 3.0, and 10 mg/kg-day for male rats and 0, 0.3, 1.0, 3.0, 10, and 30 mg/kg-day for female rats. For CTFPA, the dose levels were 0, 1.9, 3.8. 7.5, 15, and 30 mg/kg-day for male rats and 0, 6.3, 12.5, 25, 50, and 100 mg/kg-day for female rats. For each PFAS, three batches of dosing solution were prepared. The time between the batch preparation of the dosing solutions ranged between 29 and 39 days. Blood samples were collected from all the rats at termination for serum chemistry, hematology, coagulation, and the analysis of the parent PFAS chemical in the plasma. In vivo data collection and further detail on the endpoints examined postmortem are described below.
The rats were observed twice daily for morbidity and mortality throughout the study period. At least once prior to randomization to test groups and weekly thereafter, the rats were physically examined, and bodyweights were obtained. Feed consumption was quantified weekly starting on SD 1.
Neurotoxicity was evaluated using the functional observational battery (FOB) and measuring locomotor activity (LMA) 2–4 h post dosing on SDs 78–80 and 80–84, respectively. For both the 14- and 90-day studies, an ophthalmologic examination was conducted prior to randomization and near the end of the study, using indirect ophthalmoscopy and slit–lamp biomicroscopy (as needed) after the administration of a mydriatic solution.
Hematology, biochemistry, and coagulation endpoints were measured at the termination of the study. A Siemens Advia 2120i hematology analyzer (Siemens Healthineers, Erlangen, Germany) was used to measure (or calculate) the parameters related to the complete blood count, leukocyte differential count, and reticulocyte count. The hematology parameters are listed and described in Table 2. The prothrombin time […] and activated partial thromboplastin time (APTT) were measured using an Instrumentation Laboratory (Bedford, MA, USA) ACL Elite Pro coagulation analyzer (laser–nephelometric centrifugal method).
At necropsy, the rats were visually examined for external abnormalities and organ weights (absolute and relative to the BW and brain weight), which were recorded (paired organs weighed together). The tissues were preserved in 10% neutral buffered formalin (NBF), except for the ocular tissues, testes, and epididymides, which were preserved in modified Davidson’s fixative and later transferred to 10% NBF. Bone marrow smears were prepared from the femurs, and the slides were air-dried, fixed in methanol, stained, and stored at room temperature for possible future evaluation. The preserved tissues were embedded in paraffin, sectioned, stained with hematoxylin and eosin, and examined by a board-certified veterinary pathologist.
Statistical analysis was performed using Provantis™ Version 10 or greater (Instem LSS, Limited; Stone, Staffordshire, UK). Differences among the treatment groups compared to the control were evaluated using one-way analysis of variance (ANOVA) if the underlying assumptions of a normal distribution (Shapiro–Wilk test) and the homogeneity of the variance (Levene’s test) were satisfied. […]

O=C(O)C(F)(Cl)C(F)(F)F (stereo not shown) [CTFPA, 2-Chloro-2,3,3,3-tetrafluoropropanoic acid]
Bodyweight (BW) and bodyweight gain (90-day, both sexes, all doses): None CTPFA related | Clinical chemistry (90-day, both sexes, all doses): From minimal to mild increases in albumin and the A/G ratio in males at ≥7.5 mg/kg-day and in females at ≥50 mg/kg; only in males—from minimal to mild decreases in globulin at ≥7.5 mg/kg-day; from minimal to mild increases in ALPi at ≥7.5 mg/kg-day, and minimally increased BUN at 30 mg/kg-day | Clinical observations (90-day, both sexes, all doses): None | Coagulation endpoints (90-day, both sexes, all doses): From minimal to mild dose-dependent decreased APTT in males at ≥3.8 mg/kg; no effect in females | Feed consumption (90-day, both sexes, all doses): Significant non-adverse increases in males at ≥3.8 mg/kg-day; minor effects in females, not considered as CTFPA related | Functional observational battery (90-day, both sexes, all doses): No changes | Gross lesions (90-day, both sexes, all doses): None considered as CTFPA related | Hematology (90-day, both sexes, all doses): From minimal to mild decreases in red cell mass (RBC, HCT, and HGB) and increases in RDW in males at ≥7.5 mg/kg-day; no similar effect in females; from minimal to mild increased MPV in males at ≥3.8 mg/kg-day and in females at ≥50 mg/kg-day | Histopathology (90-day, both sexes, all doses): The liver of males and females; the heart and nasal turbinates of males | Locomotor activity (90-day, both sexes, all doses): No effects | Morbidity and mortality (90-day, both sexes, all doses): None | Ophthalmology (90-day, both sexes, all doses): No ocular lesions | Organ weight changes (90-day, both sexes, all doses): Mean absolute and/or relative liver weight increases in males at ≥3.8 mg/kg-day and in females at ≥25 mg/kg-day ^6; mean thymus weights increased in males at ≥15 mg/kg-day; mean kidney weights increased in females at ≥50 mg/kg-day | BMD10, absolute liver weight increase (female): 13.6 mg/kg-day | BMDL, absolute liver weight increase (female): 5.1 mg/kg-day | LOEL, absolute kidney weight increase (female): NR | LOEL, absolute liver weight increase (female): 25 mg/kg-day | LOEL, relative kidney weight increase (female): NR | LOEL, relative liver weight increase (female): 25 mg/kg-day | NOEL, absolute kidney weight increase (female): NR | NOEL, absolute liver weight increase (female): 12.5 mg/kg-day | NOEL, relative kidney weight increase (female): NR | NOEL, relative liver weight increase (female): 12.5 mg/kg-day | A/G (female, 1.9 mg/kg-day): 1.10±0.09 ratio | ALB (female, 1.9 mg/kg-day): 4.07 ± 0.31 g/dL | ALPi (female, 1.9 mg/kg-day): 49.7±22.7 U/L | BUN (female, 1.9 mg/kg-day): 16.4 ± 3.6 mg/dL | CHOL (female, 1.9 mg/kg-day): 94.7 ± 23.9 mg/dL | GLOB (female, 1.9 mg/kg-day): 3.69 ± 0.19 g/dL | GLUC (female, 1.9 mg/kg-day): 140.7 ± 21.5 mg/dL | A/G (female, 3.8 mg/kg-day): 1.17±0.10 ratio | ALB (female, 3.8 mg/kg-day): 4.41 ± 0.33 g/dL | ALPi (female, 3.8 mg/kg-day): 56.6±19.8 U/L | BUN (female, 3.8 mg/kg-day): 16.5 ± 3.0 mg/dL | CHOL (female, 3.8 mg/kg-day): 95.9 ± 14.5 mg/dL | GLOB (female, 3.8 mg/kg-day): 3.78 ± 0.20 g/dL | GLUC (female, 3.8 mg/kg-day): 133.0 ± 25.5 mg/dL | % BW Gain (female, 6.3 mg/kg-day): 59.29% | % Diff, % BW Gain (female, 6.3 mg/kg-day): 12.55% | % Diff, Total BW change (female, 6.3 mg/kg-day): 13.40% | % Diff, Total Food Consumed (female, 6.3 mg/kg-day): 8.28% | APTT (female, 6.3 mg/kg-day): 17.76 s | HCT (female, 6.3 mg/kg-day): 47.57±2.23% | HGB (female, 6.3 mg/kg-day): 15.03 ± 0.80 g/dL | Kidney Weight (female, 6.3 mg/kg-day): 1.91 g | Kidney/Body Weight (female, 6.3 mg/kg-day): 0.57% | Kidney/Brain Weight (female, 6.3 mg/kg-day): 95.5% | Liver Weight (female, 6.3 mg/kg-day): 8.76 g | Liver/Body Weight (female, 6.3 mg/kg-day): 2.59% | Liver/Brain Weight (female, 6.3 mg/kg-day): 437% | MPV (female, 6.3 mg/kg-day): 7.57 ± 0.49 fL | PT (female, 6.3 mg/kg-day): 14.58 s | Total BW change (female, 6.3 mg/kg-day): 129.35 g | Total Food Consumed (female, 6.3 mg/kg-day): 1671 g | A/G (female, 7.5 mg/kg-day): 1.18±0.14 ratio | ALB (female, 7.5 mg/kg-day): 4.36 ± 0.42 g/dL | ALPi (female, 7.5 mg/kg-day): 54.6±16.8 U/L | BUN (female, 7.5 mg/kg-day): 16.4 ± 2.4 mg/dL | CHOL (female, 7.5 mg/kg-day): 98.2 ± 26.4 mg/dL | GLOB (female, 7.5 mg/kg-day): 3.70 ± 0.28 g/dL | GLUC (female, 7.5 mg/kg-day): 143.6 ± 21.3 mg/dL | % BW Gain (female, 12.5 mg/kg-day): 56.17% | % Diff, % BW Gain (female, 12.5 mg/kg-day): 6.64% | % Diff, Total BW change (female, 12.5 mg/kg-day): 5.12% | % Diff, Total Food Consumed (female, 12.5 mg/kg-day): 1.02% | APTT (female, 12.5 mg/kg-day): 16.20 s | HCT (female, 12.5 mg/kg-day): 45.99±2.31% | HGB (female, 12.5 mg/kg-day): 14.52 ± 0.79 g/dL | Kidney Weight (female, 12.5 mg/kg-day): 1.97 g | Kidney/Body Weight (female, 12.5 mg/kg-day): 0.60% | Kidney/Brain Weight (female, 12.5 mg/kg-day): 93.7% | Liver Weight (female, 12.5 mg/kg-day): 8.97 g | Liver/Body Weight (female, 12.5 mg/kg-day): 2.71% | Liver/Brain Weight (female, 12.5 mg/kg-day): 428% | MPV (female, 12.5 mg/kg-day): 8.00 ± 0.97 fL | PT (female, 12.5 mg/kg-day): 14.17 s | Total BW change (female, 12.5 mg/kg-day): 119.91 g | Total Food Consumed (female, 12.5 mg/kg-day): 1559 g | A/G (female, 15 mg/kg-day): 1.19±0.08 ratio | ALB (female, 15 mg/kg-day): 4.46 ± 0.44 g/dL | ALPi (female, 15 mg/kg-day): 57.7±20.2 U/L | BUN (female, 15 mg/kg-day): 16.3 ± 2.3 mg/dL | CHOL (female, 15 mg/kg-day): 96.5 ± 26.2 mg/dL | GLOB (female, 15 mg/kg-day): 3.73 ± 0.20 g/dL | GLUC (female, 15 mg/kg-day): 154.6 ± 21.6 mg/dL | % BW Gain (female, 25 mg/kg-day): 53.36% | % Diff, % BW Gain (female, 25 mg/kg-day): 1.29% | % Diff, Total BW change (female, 25 mg/kg-day): 1.52% | % Diff, Total Food Consumed (female, 25 mg/kg-day): 2.96% | APTT (female, 25 mg/kg-day): 21.82 s | HCT (female, 25 mg/kg-day): 46.61±2.96% | HGB (female, 25 mg/kg-day): 14.62 ± 1.04 g/dL | Kidney Weight (female, 25 mg/kg-day): 1.97 g | Kidney/Body Weight (female, 25 mg/kg-day): 0.60% | Kidney/Brain Weight (female, 25 mg/kg-day): 95.0% | Liver Weight (female, 25 mg/kg-day): 9.97 g | Liver/Body Weight (female, 25 mg/kg-day): 3.02% | Liver/Brain Weight (female, 25 mg/kg-day): 483% | MPV (female, 25 mg/kg-day): 7.65 ± 0.50 fL | PT (female, 25 mg/kg-day): 14.34 s | Total BW change (female, 25 mg/kg-day): 115.80 g | Total Food Consumed (female, 25 mg/kg-day): 1589 g | A/G (female, 30 mg/kg-day): 1.22±0.07 ratio | ALB (female, 30 mg/kg-day): 4.62 ± 0.45 g/dL | ALPi (female, 30 mg/kg-day): 74.1±17.5 U/L | BUN (female, 30 mg/kg-day): 18.3 ± 2.5 mg/dL | CHOL (female, 30 mg/kg-day): 101.9 ± 15.8 mg/dL | GLOB (female, 30 mg/kg-day): 3.77 ± 0.25 g/dL | GLUC (female, 30 mg/kg-day): 153.4 ± 21.2 mg/dL | % BW Gain (female, 50 mg/kg-day): 51.94% | % Diff, % BW Gain (female, 50 mg/kg-day): -1.40% | % Diff, Total BW change (female, 50 mg/kg-day): -0.34% | % Diff, Total Food Consumed (female, 50 mg/kg-day): 2.22% | APTT (female, 50 mg/kg-day): 17.22 s | HCT (female, 50 mg/kg-day): 45.75±1.73% | HGB (female, 50 mg/kg-day): 14.30 ± 0.57 g/dL | Kidney Weight (female, 50 mg/kg-day): 2.07 g | Kidney/Body Weight (female, 50 mg/kg-day): 0.63% | Kidney/Brain Weight (female, 50 mg/kg-day): 102% | Liver Weight (female, 50 mg/kg-day): 10.49 g | Liver/Body Weight (female, 50 mg/kg-day): 3.21% | Liver/Brain Weight (female, 50 mg/kg-day): 520% | MPV (female, 50 mg/kg-day): 8.10 ± 0.46 fL | PT (female, 50 mg/kg-day): 14.57 s | Total BW change (female, 50 mg/kg-day): 113.68 g | Total Food Consumed (female, 50 mg/kg-day): 1577 g | % BW Gain (female, 100 mg/kg-day): 49.85% | % Diff, % BW Gain (female, 100 mg/kg-day): -5.37% | % Diff, Total BW change (female, 100 mg/kg-day): -5.90% | % Diff, Total Food Consumed (female, 100 mg/kg-day): 4.68% | APTT (female, 100 mg/kg-day): 21.23 s | HCT (female, 100 mg/kg-day): 46.76±2.13% | HGB (female, 100 mg/kg-day): 14.60 ± 0.66 g/dL | Kidney Weight (female, 100 mg/kg-day): 2.05 g | Kidney/Body Weight (female, 100 mg/kg-day): 0.65% | Kidney/Brain Weight (female, 100 mg/kg-day): 104%
